Values belong to the molecule of their own block, whether it stands above or below them.
What was measured:
[1] = molecular target: 5-hydroxytryptamine receptor 1E (Homo sapiens, UniProt P28566); test: GPCRScan assay: inhibition of 5-HT1E; set-up: radioligand conc. used [nm] 2.1 – 5.0, parental cells stable HEK
[2] = molecular target: Nociceptin receptor (Homo sapiens) (UniProt P41146); test: NOP (ORL1) (h) Eurofins-Cerep binding assay; set-up: ligand concentration 0.06 nM; conditions: filed as agonist, Compound concentration 10.0 uM
Sequence of Nociceptin receptor (Homo sapiens) (P41146 whole entry): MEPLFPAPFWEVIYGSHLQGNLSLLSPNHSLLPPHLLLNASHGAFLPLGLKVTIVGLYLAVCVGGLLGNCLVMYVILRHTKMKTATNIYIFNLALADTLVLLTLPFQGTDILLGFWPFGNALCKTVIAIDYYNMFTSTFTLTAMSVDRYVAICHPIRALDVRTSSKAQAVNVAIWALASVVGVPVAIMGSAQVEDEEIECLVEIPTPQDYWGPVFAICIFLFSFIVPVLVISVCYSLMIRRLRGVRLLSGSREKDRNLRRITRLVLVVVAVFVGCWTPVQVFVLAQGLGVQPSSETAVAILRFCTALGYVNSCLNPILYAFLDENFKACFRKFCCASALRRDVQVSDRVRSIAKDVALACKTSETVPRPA

[3] = molecular target: C-C chemokine receptor type 1 (Homo sapiens) (UniProt P32246); test: CCR1 (h) Eurofins-Cerep binding assay; set-up: ligand concentration 0.01 nM; conditions: filed as agonist, Compound concentration 10.0 uM
Sequence of C-C chemokine receptor type 1 (Homo sapiens) (P32246 whole entry): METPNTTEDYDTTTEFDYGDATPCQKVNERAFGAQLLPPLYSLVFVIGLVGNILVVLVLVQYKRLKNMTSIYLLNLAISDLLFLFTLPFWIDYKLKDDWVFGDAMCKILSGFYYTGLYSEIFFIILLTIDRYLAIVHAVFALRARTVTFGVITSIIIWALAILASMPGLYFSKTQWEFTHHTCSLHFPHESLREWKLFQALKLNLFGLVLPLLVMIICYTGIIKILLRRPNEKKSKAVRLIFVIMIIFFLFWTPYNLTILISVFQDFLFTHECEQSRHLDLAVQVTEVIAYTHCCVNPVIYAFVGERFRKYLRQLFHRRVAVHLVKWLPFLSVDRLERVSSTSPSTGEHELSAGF

[4] = molecular target: Adrenergic receptor alpha-1 (Rattus norvegicus) (UniProt P15823+P23944+P43140); test: Alpha1 (non-selective) Eurofins-Cerep binding assay; format: protein assay; set-up: ligand concentration 0.25 nM; conditions: filed as antagonist, Compound concentration 10.0 uM
[5] = molecular target: Neurotensin receptor type 1 (Homo sapiens) (UniProt P30989); test: NTS1 (NT1) (h) Eurofins-Cerep binding assay; set-up: ligand concentration 0.05 nM; conditions: filed as agonist, Compound concentration 10.0 uM
[6] = molecular target: Histamine H1 receptor (Homo sapiens) (UniProt P35367); test: H1 (h) Eurofins-Cerep binding assay; set-up: ligand concentration 1 nM; conditions: filed as antagonist, Compound concentration 10.0 uM
[7] = molecular target: Sodium-dependent dopamine transporter (Homo sapiens, UniProt Q01959); test: dopamine transporter (h) Eurofins-Cerep binding assay; set-up: ligand concentration 4 nM; conditions: filed as antagonist, Compound concentration 10.0 uM
[8] = molecular target: 5-hydroxytryptamine receptor 7 (Homo sapiens) (UniProt P34969); test: 5-HT7 (h) Eurofins-Cerep binding assay; set-up: ligand concentration 4 nM; conditions: filed as agonist, Compound concentration 10.0 uM
Sequence of 5-hydroxytryptamine receptor 7 (Homo sapiens) (P34969 whole entry): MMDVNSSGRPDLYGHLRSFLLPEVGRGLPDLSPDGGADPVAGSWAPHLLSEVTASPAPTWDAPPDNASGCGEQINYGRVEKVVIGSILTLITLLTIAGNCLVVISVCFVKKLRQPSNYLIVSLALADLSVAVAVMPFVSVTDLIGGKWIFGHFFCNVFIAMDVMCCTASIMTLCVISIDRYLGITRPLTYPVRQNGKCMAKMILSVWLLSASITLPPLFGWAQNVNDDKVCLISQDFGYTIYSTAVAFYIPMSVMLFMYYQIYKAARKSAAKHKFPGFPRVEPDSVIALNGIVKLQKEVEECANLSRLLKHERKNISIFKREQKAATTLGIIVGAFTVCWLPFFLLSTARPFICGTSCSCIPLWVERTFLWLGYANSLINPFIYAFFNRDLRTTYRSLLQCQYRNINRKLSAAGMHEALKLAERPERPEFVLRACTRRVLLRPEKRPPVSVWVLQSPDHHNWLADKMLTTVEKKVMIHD

[9] = molecular target: 5-hydroxytryptamine receptor 1B (Homo sapiens) (UniProt P28222); test: 5-HT1B(h) Eurofins-Cerep binding assay; set-up: ligand concentration 1 nM; conditions: filed as antagonist, Compound concentration 10.0 uM
[10] = molecular target: Beta-2 adrenergic receptor (Homo sapiens) (UniProt P07550); test: Beta2 (h) Eurofins-Cerep binding assay; conditions: filed as antagonist, Compound concentration 10.0 uM
Sequence of Beta-2 adrenergic receptor (Homo sapiens) (P07550 whole entry, looked up): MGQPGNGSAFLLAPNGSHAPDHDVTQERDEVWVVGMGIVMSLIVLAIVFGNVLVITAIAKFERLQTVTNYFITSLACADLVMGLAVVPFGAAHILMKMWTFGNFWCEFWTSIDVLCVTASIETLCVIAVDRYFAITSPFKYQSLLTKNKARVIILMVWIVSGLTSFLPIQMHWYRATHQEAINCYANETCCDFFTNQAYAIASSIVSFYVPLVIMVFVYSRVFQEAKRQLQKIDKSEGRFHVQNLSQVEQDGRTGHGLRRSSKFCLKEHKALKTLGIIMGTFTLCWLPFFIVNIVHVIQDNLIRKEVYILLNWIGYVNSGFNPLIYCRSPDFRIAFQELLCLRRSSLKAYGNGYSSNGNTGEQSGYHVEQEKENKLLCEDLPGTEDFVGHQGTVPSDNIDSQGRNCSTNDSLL

[11] = molecular target: T1, Muscarinic acetylcholine receptor M2 (Homo sapiens) (UniProt P08172); test: M2 (h) Eurofins-Cerep binding assay; set-up: ligand concentration 2 nM; conditions: filed as antagonist, Compound concentration 10.0 uM
T1 sequence (whole entry): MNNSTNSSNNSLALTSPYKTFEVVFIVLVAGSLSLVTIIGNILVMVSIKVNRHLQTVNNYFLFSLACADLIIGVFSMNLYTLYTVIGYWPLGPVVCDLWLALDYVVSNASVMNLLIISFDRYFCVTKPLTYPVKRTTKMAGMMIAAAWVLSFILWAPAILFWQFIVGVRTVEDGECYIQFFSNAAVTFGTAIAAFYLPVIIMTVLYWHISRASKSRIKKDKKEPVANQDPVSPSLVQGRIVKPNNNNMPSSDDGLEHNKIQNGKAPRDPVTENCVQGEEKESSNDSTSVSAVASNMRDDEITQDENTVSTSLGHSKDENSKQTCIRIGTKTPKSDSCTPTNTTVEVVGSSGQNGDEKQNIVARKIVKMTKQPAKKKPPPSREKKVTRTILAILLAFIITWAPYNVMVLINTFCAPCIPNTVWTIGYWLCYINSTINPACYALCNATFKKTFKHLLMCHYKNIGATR

[12] = molecular target: 5-hydroxytryptamine receptor 2B (Homo sapiens) (UniProt P41595); test: 5-HT2B (h) Eurofins-Cerep binding assay; set-up: ligand concentration 0.2 nM; conditions: filed as agonist, Compound concentration 10.0 uM
[13] = species: Rattus norvegicus; test: KV channel Eurofins-Cerep binding assay; conditions: filed as antagonist, Compound concentration 10.0 uM
[14] = molecular target: T2, GABA-A receptor; anion channel (Rattus norvegicus) (UniProt O09028+P15431+P18506+P18508+P19969+P20236+P23574+P23576+P28471+P28473+P30191+P62813+P63079+P63138+Q91ZM7+Q9ES14); test: BZD (central) Eurofins-Cerep binding assay; format: protein-complex assay; set-up: ligand concentration 0.4 nM; conditions: filed as agonist, Compound concentration 10.0 uM
[15] = molecular target: Histamine H2 receptor (Homo sapiens) (UniProt P25021); conditions: Compound concentration 10.0 uM
[16] = molecular target: Galanin receptor type 2 (Homo sapiens) (UniProt O43603); test: GAL2 (h) Eurofins-Cerep binding assay; set-up: ligand concentration 0.05 nM; conditions: filed as agonist, Compound concentration 10.0 uM
[17] = molecular target: Adrenergic receptor alpha-2 (Rattus norvegicus) (UniProt P22086+P19328+P22909); test: Alpha2 (non-selective) Eurofins-Cerep binding assay; format: protein assay; set-up: ligand concentration 1 nM; conditions: filed as antagonist, Compound concentration 10.0 uM
[18] = molecular target: Muscarinic acetylcholine receptor M3 (Homo sapiens) (UniProt P20309); test: M3 (h) Eurofins-Cerep binding assay; set-up: ligand concentration 0.2 nM; conditions: filed as antagonist, Compound concentration 10.0 uM
[19] = molecular target: Melanocortin receptor 4 (Homo sapiens) (UniProt P32245); test: MC4 (h) Eurofins-Cerep binding assay; set-up: ligand concentration 0.05 nM; conditions: filed as agonist, Compound concentration 10.0 uM
Sequence of Melanocortin receptor 4 (Homo sapiens) (P32245 whole entry): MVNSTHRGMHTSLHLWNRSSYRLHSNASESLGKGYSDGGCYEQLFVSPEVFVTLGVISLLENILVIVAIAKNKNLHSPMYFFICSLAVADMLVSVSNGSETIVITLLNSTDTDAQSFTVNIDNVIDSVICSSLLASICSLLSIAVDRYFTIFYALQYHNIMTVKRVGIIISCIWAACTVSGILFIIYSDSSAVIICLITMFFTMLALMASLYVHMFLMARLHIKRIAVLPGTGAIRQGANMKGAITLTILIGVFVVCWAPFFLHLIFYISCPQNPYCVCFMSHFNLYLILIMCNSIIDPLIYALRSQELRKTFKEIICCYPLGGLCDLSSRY

[20] = molecular target: T3, 5-hydroxytryptamine receptor 5A (Homo sapiens, UniProt P47898); test: GPCRScan assay: inhibition of 5-HT5A; set-up: radioligand conc. used [nm] 2.0 - 3.3, parental cells Flp-In CHO
T3 sequence (P47898 whole entry): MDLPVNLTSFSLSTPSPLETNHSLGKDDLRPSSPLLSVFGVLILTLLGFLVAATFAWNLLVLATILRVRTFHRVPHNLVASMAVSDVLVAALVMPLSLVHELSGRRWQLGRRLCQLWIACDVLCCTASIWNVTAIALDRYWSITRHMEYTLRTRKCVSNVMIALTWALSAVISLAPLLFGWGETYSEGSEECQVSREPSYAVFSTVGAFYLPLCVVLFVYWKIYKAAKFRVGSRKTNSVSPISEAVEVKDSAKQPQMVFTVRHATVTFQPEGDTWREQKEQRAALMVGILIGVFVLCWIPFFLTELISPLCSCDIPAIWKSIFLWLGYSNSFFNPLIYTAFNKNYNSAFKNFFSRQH

[21] = molecular target: L-type Ca2+ channel (diltiazem site, benzothiazepines) (Rattus norvegicus, UniProt P22002+P27732+Q02485); test: Ca2+ channel (L, diltiazem site) (benzothiazepines) Eurofins-Cerep binding assay; format: protein assay; set-up: incubation time 120 min, incubation temperature RT, ligand concentration 15 nM; conditions: rat cerebral cortex, probe [3H]diltiazem, compound concentration 10 uM, read-out: % Inhibition of Control Specific Binding (Mean n=2)
[22] = molecular target: Vasopressin V1a receptor (Homo sapiens) (UniProt P37288); test: V1 a (h) Eurofins-Cerep binding assay; set-up: ligand concentration 0.3 nM; conditions: filed as agonist, Compound concentration 10.0 uM
[23] = molecular target: T2, GABA-A receptor; anion channel (Rattus norvegicus); test: GABA (non-selective) Eurofins-Cerep binding assay; format: protein-complex assay; set-up: ligand concentration 10 nM; conditions: filed as agonist, Compound concentration 10.0 uM
[24] = molecular target: 5-hydroxytryptamine receptor 6 (Homo sapiens, UniProt P50406); test: 5-HT6 (h) Eurofins-Cerep binding assay; set-up: ligand concentration 2 nM; conditions: filed as agonist, Compound concentration 10.0 uM
[25] = molecular target: T3, 5-hydroxytryptamine receptor 5A; test: 5-HT5a (h) Eurofins-Cerep binding assay; set-up: ligand concentration 1.5 nM; conditions: filed as agonist, Compound concentration 10.0 uM
[26] = molecular target: Sodium-dependent noradrenaline transporter (Homo sapiens) (UniProt P23975); test: norepinephrine transporter (h) Eurofins-Cerep binding assay; set-up: ligand concentration 1 nM; conditions: filed as antagonist, Compound concentration 10.0 uM
Sequence of Sodium-dependent noradrenaline transporter (Homo sapiens) (P23975 whole entry): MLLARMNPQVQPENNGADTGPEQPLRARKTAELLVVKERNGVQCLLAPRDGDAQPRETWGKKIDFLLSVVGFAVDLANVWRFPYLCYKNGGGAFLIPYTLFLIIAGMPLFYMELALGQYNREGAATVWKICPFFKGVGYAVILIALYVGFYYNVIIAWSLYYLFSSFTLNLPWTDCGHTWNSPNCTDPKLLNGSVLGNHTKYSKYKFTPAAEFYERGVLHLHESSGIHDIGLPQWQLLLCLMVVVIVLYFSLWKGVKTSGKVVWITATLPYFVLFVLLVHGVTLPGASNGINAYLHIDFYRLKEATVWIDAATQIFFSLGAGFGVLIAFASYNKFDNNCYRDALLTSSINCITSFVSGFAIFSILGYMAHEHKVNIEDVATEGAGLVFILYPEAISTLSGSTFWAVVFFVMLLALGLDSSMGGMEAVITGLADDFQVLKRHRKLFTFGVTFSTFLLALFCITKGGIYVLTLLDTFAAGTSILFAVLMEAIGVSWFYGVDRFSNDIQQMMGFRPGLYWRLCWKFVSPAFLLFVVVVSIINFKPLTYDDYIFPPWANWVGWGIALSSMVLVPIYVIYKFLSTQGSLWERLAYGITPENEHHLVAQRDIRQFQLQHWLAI

[27] = molecular target: Sodium-dependent serotonin transporter (Homo sapiens) (UniProt P31645); test: 5-HT transporter (h) Eurofins-Cerep binding assay; set-up: ligand concentration 2 nM; conditions: filed as antagonist, Compound concentration 10.0 uM
[28] = molecular target: 5-hydroxytryptamine receptor 2A (Homo sapiens) (UniProt P28223); test: 5-HT2A (h) Eurofins-Cerep binding assay; set-up: ligand concentration 0.5 nM; conditions: filed as antagonist, Compound concentration 10.0 uM
[29] = molecular target: Mu-type opioid receptor (Homo sapiens) (UniProt P35372); test: mu (MOP) (h) Eurofins-Cerep binding assay; set-up: ligand concentration 0.5 nM; conditions: filed as agonist, Compound concentration 10.0 uM
[30] = molecular target: Neuromedin-K receptor (Homo sapiens) (UniProt P29371); test: NK3 (h) Eurofins-Cerep binding assay; set-up: ligand concentration 0.4 nM; conditions: filed as antagonist, Compound concentration 10.0 uM
Sequence of Neuromedin-K receptor (Homo sapiens) (P29371 whole entry): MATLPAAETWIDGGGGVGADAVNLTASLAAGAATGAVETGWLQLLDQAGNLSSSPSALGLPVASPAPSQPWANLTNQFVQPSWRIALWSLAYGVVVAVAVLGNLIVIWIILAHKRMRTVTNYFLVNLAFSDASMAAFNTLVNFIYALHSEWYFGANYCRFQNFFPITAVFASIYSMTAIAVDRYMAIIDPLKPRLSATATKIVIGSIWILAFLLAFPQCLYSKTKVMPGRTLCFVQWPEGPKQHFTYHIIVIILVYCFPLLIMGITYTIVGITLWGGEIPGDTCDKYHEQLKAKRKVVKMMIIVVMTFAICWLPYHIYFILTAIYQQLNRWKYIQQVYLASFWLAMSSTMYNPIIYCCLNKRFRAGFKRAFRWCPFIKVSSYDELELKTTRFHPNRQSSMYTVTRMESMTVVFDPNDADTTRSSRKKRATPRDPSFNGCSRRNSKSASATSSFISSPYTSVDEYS

[31] = molecular target: D(1A) dopamine receptor (Homo sapiens) (UniProt P21728); test: D1 (h) Eurofins-Cerep binding assay; set-up: ligand concentration 0.3 nM; conditions: filed as antagonist, Compound concentration 10.0 uM
[32] = molecular target: Na+ channel (site 2) (Rattus norvegicus, UniProt F1LQQ7+O08562+O88420+O88457+P04774+P04775+P08104+P15389+P15390+Q62968); test: Na+ channel (site 2) Eurofins-Cerep binding assay; format: protein assay; set-up: incubation time 60 min, incubation temperature 37°C, ligand concentration 10 nM; conditions: rat cerebral cortex, probe [3H]batrachotoxin, compound concentration 10 uM, read-out: % Inhibition of Control Specific Binding (Mean n=2)
[33] = molecular target: D(1B) dopamine receptor (Homo sapiens) (UniProt P21918); conditions: Compound concentration 10.0 uM
[34] = molecular target: Beta-1 adrenergic receptor (Homo sapiens) (UniProt P08588); test: Beta1 (h) Eurofins-Cerep binding assay; set-up: ligand concentration 0.3 nM; conditions: filed as agonist, Compound concentration 10.0 uM
Sequence of Beta-1 adrenergic receptor (Homo sapiens) (P08588 whole entry, looked up): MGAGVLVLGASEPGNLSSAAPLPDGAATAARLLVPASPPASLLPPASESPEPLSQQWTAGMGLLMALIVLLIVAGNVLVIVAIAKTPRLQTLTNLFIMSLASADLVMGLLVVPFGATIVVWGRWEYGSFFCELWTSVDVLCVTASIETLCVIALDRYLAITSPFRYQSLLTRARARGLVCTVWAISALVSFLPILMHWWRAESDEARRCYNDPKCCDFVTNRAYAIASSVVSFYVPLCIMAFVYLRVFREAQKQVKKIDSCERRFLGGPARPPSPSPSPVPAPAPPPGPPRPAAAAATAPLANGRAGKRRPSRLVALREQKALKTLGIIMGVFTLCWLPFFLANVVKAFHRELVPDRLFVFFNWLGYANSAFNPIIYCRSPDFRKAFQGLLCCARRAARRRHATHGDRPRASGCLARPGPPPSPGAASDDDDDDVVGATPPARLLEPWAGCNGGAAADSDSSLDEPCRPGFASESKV

[35] = molecular target: T3, 5-hydroxytryptamine receptor 5A; conditions: Compound concentration 10.0 uM
[36] = molecular target: T2, GABA-A receptor; anion channel (Rattus norvegicus); conditions: Compound concentration 10.0 uM
[37] = molecular target: Monocarboxylate transporter 4 (Homo sapiens, UniProt O15427); test: Lactate efflux inhibition assay (MDA-MB-231)
Sequence of Monocarboxylate transporter 4 (O15427 whole entry): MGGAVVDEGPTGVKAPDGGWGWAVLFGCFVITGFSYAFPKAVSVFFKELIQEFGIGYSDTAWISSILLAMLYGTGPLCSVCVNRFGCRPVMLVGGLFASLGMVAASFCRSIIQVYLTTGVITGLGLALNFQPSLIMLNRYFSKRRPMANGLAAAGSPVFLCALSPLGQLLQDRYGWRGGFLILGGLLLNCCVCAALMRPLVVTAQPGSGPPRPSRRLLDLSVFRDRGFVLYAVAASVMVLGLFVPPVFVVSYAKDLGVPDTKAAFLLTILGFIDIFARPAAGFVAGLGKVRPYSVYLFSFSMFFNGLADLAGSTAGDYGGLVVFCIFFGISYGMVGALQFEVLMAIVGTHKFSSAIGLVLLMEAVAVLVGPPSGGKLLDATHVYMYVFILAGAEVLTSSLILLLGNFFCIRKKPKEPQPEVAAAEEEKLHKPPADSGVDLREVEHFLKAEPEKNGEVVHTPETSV

Sequence of 5-hydroxytryptamine receptor 1E (P28566 whole entry): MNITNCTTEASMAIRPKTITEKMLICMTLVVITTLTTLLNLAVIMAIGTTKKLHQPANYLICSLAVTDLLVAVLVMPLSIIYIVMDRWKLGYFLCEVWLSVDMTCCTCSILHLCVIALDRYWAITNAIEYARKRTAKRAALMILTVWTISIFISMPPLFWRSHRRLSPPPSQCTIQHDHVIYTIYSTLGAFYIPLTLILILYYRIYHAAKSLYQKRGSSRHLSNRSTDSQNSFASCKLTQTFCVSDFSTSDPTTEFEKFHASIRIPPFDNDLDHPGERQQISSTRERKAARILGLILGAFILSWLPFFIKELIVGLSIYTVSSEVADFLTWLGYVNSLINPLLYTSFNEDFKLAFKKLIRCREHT

Ki [1]: > 10 µM
pKi [1]: < 5
% Inhibition of Control Specific Binding (Mean n=2) [2]: -14.7%
% Inhibition of Control Specific Binding (Mean n=2) [3]: -4.3%
% Inhibition of Control Specific Binding (Mean n=2) [4]: 6.6%
% Inhibition of Control Specific Binding (Mean n=2) [5]: -10.4%
% Inhibition of Control Specific Binding (Mean n=2) [6]: 27.6%
% Inhibition of Control Specific Binding (Mean n=2) [7]: 7.8%
% Inhibition of Control Specific Binding (Mean n=2) [8]: -6.6%
% Inhibition of Control Specific Binding (Mean n=2) [9]: -15.6%
% Inhibition of Control Specific Binding (Mean n=2) [10]: -3.7%
% Inhibition of Control Specific Binding (Mean n=2) [11]: 35.8%
% Inhibition of Control Specific Binding (Mean n=2) [12]: -47.1%
% Inhibition of Control Specific Binding (Mean n=2) [13]: -5.9%
% Inhibition of Control Specific Binding (Mean n=2) [14]: -7.6%
inhibition [15]: 24.2%
% Inhibition of Control Specific Binding (Mean n=2) [16]: 11.1%
% Inhibition of Control Specific Binding (Mean n=2) [17]: -8.2%
% Inhibition of Control Specific Binding (Mean n=2) [18]: 8%
% Inhibition of Control Specific Binding (Mean n=2) [19]: -8%
Ki [20]: 1.63 µM
inhibition at 120 min, 10 µM [21]: -8.8%
% Inhibition of Control Specific Binding (Mean n=2) [22]: 92.3%
% Inhibition of Control Specific Binding (Mean n=2) [23]: 1.2%
% Inhibition of Control Specific Binding (Mean n=2) [24]: 32%
% Inhibition of Control Specific Binding (Mean n=2) [25]: -20.7%
% Inhibition of Control Specific Binding (Mean n=2) [26]: 30.4%
% Inhibition of Control Specific Binding (Mean n=2) [27]: 2.4%
% Inhibition of Control Specific Binding (Mean n=2) [28]: -4.1%
% Inhibition of Control Specific Binding (Mean n=2) [29]: -8.9%
% Inhibition of Control Specific Binding (Mean n=2) [30]: -8.7%
% Inhibition of Control Specific Binding (Mean n=2) [31]: 28.9%
inhibition [33]: 47.7%
% Inhibition of Control Specific Binding (Mean n=2) [34]: 17.4%
Structure (SMILES): CCOc1ccc(S(=O)(=O)Nc2ccc(Cl)cc2C#Cc2cnc(C(=O)O)cc2OC)c2ncccc12 [MSC-4381]
inhibition at 60 min, 10 µM [32]: -4.9%

inhibition [35]: 12.2%
inhibition [36]: 19.4%
IC50 [37]: 0.506 µM (not active)
Structure (SMILES): COc1cc(C(=O)O)ncc1C#Cc1ccccc1NS(=O)(=O)c1cccc2c(N(C)C)ccnc12 [MSC-0516]
